Test systems include HCT-116 colon; MDA-N; RPMI-8226 leukemia; SN12C renal; SNB-19 CNS; SNB-75 CNS; SR leukemia; SW-620 colon; A498 renal; BT-549 breast; EKVX NSCLC; KM12 colon; MALME-3M melanoma; NCI-H522 lung; RXF 393 renal; SF-268 CNS; UACC-62 melanoma.
Holding throughout (assay): DTP human tumour cell line panel, 48 h

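In this assay, cells in 96-well plates receive the compound at five concentrations for 48 hours. Endpoints are linearly interpolated between the surrounding concentrations. TGI denotes the concentration required for complete inhibition of growth.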

As a reminder, the TGI is the concentration giving total growth inhibition. For the compound `COP(C)(=O)/C(Cc1ccccc1)=N\O` (centres undefined), the total growth inhibition concentration (TGI) in the assay with HCT-116 colon, in the assay on MDA-N, in the assay with RPMI-8226 leukemia, in the assay on SN12C renal, in the assay with SNB-19 CNS and in the assay with SNB-75 CNS was greater than 100 µM in each case. For the same compound, the TGI in the assay with SR leukemia and with SW-620 colon was greater than 100 µM in each case.
As for `COc1ccc(Cc2nc3cc(C(F)(F)F)ccc3n2CCCN(C)C)cc1`, the TGI was found to be 35.6 µM with A498 renal; 43.4 µM in the assay with BT-549 breast; 65.4 µM with EKVX NSCLC; 30.3 µM in the assay with KM12 colon; 29.1 µM with MALME-3M melanoma; 31.8 µM in the assay on NCI-H522 lung. The TGI in the assay with RXF 393 renal is 29.2 µM; in the assay on SF-268 CNS, 70.9 µM; in the assay with SNB-19 CNS, greater than 100 µM; in the assay on SW-620 colon it was 44.7 µM; in the assay with UACC-62 melanoma, 32.1 µM.

(Values after PubChem BioAssay (NCI).)
